Laboratory results reported in ChEMBL document CHEMBL4190196, “Kohamamides A, B, and C, Cyclic Depsipeptides from an Okeania sp. Marine Cyanobacterium” (J Nat Prod, 2017).
*1 amine or outer side, *2 acyl side, *3 side chain or, on linkers, in order; H or OH if unused. Where a SMILES comes first, the peptide text is derived from it. Bridges are numbered along the chain shown (N, C = ends). [ ]: non-standard residue; d: D form. X1 = C#CCCC[C@H](O[*:2])C(C)(C)C(=O)[*:1]; X2 = C=CCCC[C@H](O[*:2])C(C)(C)C(=O)[*:1]; X3 = CCCCC[C@H](O[*:2])C(C)(C)C(=O)[*:1]; Hmpa(2S,3S) = CC[C@H](C)[C@H](O)C(=O)O; NMeV = CN[C@H](C(=O)O)C(C)C

Tests used:
[1] = test system: HeLa; test: Growth inhibition of human HeLa cells after 72 hrs by MTT assay; type: functional, cell-based
[2] = test system: HL-60; test: Growth inhibition of human HL60 cells after 72 hrs by MTT assay; type: functional, cell-based; details: HL-60, 72 h

C=CCCC[C@@H]1OC(=O)[C@H](C)NC(=O)[C@H](CC(C)C)NC(=O)[C@@H]2CCCN2C(=O)[C@H]([C@@H](C)CC)OC(=O)[C@H](C(C)C)N(C)C(=O)[C@H](C(C)C)NC(=O)C1(C)C (V[NMeV][Hmpa(2S,3S)]PLA; linker N-C via X2)
IC50 [1]: 23 µM | IC50 [2]: 6 µM

CCCCC[C@@H]1OC(=O)[C@H](C)NC(=O)[C@H](CC(C)C)NC(=O)[C@@H]2CCCN2C(=O)[C@H]([C@@H](C)CC)OC(=O)[C@H](C(C)C)N(C)C(=O)[C@H](C(C)C)NC(=O)C1(C)C (V[NMeV][Hmpa(2S,3S)]PLA; linker N-C via X3)
IC50 [1]: 18 µM | IC50 [2]: 11 µM

C#CCCC[C@@H]1OC(=O)[C@H](C)NC(=O)[C@H](CC(C)C)NC(=O)[C@@H]2CCCN2C(=O)[C@H]([C@@H](C)CC)OC(=O)[C@H](C(C)C)N(C)C(=O)[C@H](C(C)C)NC(=O)C1(C)C (V[NMeV][Hmpa(2S,3S)]PLA; linker N-C via X1)
IC50 [1]: 29 µM | IC50 [2]: 19 µM
